Source: patent US20070213402A1, “Compounds which interact with the thyroid hormone receptor for the treatment of fibrotic disease” (priority 1998, published 2007)

Assays:
collagenase I promoter [1] = experiment: Experiment 1: collagenase I promoter (-73/+63)-luciferase in CV1 cells, no receptor plasmid (Empty); type: cell-based, African Green Monkey; settings: for Raw counts (Empty) / % control (Empty): no receptor; for % control (Empty): Blank = 100
Excerpt: (§1) Two plasmid constructs were introduced by standard calcium phosphate precipitation of DNA followed by glycerol shock (Ausubel F M, Brent R, Kingston D D, Moore J G et al Current protocols in molecular biology 1994 Greene Publishing Associates/Wiley-Interscience, New York, N.Y.) using a transformed African Green Monkey kidney cell line (CV1) (Schneikert J, Peterziel H, Defossez P-A, Klocker H, de Launoit Y and Cato A C B Androgen receptor-Ets protein interaction is a novel mechanism for steroid hormone-mediated down-modulation of matrix metalloproteinase expression, Journal of Biological Chemistry. Vol 271(39) (pp 23907-23913), 1996).
(§2) Accordingly, the following two plasmids were included into CV1 cells described above — • (a) Either of GR1 or pSG5ARF containing glucocorticoid or androgen receptor (AR) respectively, both at 2 ug per 5×10^5 cells, driven by the Rous sarcoma virus promoter, and • (b) a plasmid containing the −73/+63 portion of the collagenase I promoter linked to luciferase gene at 8 ug per 5×10^5 cells.
(§3) CPII was compound II above, clobuzarit.

collagenase I promoter [2] = experiment: Experiment 1: collagenase I promoter (-73/+63)-luciferase in CV1 cells transfected with GR1 (glucocorticoid receptor); type: cell-based, African Green Monkey; settings: for % control (GR1): Blank = 100
Excerpt: as §1, §2, §3

collagenase I promoter [3] = experiment: Experiment 1: collagenase I promoter (-73/+63)-luciferase in CV1 cells transfected with pSG5ARF (androgen receptor); type: cell-based, African Green Monkey; settings: for % control (AR): Blank = 100
Excerpt: as §1, §2, §3

glucocorticoid receptor = target: T1, glucocorticoid receptor (Homo sapiens, UniProt P04150); experiment: Experiment 2: PGL3MMTV-luciferase transactivation in CV1 cells with glucocorticoid receptor (GR1); type: cell-based; settings: for % control (GR1): Blank = 100
T1 construct: expressed in transfected cells; host or cells: CV1 (transformed African Green Monkey kidney cell line)
T1 sequence (P04150 1-777): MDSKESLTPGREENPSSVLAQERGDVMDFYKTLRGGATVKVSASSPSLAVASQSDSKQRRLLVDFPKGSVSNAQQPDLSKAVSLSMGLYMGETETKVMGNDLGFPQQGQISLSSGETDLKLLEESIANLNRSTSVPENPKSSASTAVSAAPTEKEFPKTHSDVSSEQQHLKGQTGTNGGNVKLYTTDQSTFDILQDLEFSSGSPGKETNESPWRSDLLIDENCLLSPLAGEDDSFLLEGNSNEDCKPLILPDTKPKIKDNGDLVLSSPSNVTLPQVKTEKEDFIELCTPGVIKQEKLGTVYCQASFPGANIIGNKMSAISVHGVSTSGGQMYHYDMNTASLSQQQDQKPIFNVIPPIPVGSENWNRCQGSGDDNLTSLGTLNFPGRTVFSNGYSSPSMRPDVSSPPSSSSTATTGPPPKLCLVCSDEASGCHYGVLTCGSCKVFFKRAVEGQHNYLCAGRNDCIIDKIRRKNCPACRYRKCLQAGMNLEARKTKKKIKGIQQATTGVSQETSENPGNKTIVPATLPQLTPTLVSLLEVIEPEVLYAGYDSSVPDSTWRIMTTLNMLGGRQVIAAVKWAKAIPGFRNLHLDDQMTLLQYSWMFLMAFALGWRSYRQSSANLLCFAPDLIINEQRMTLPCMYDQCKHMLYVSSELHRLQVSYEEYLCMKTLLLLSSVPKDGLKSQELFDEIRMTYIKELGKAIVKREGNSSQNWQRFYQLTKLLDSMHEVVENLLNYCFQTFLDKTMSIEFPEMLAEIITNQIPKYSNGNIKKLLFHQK
Excerpt: as §1
This experiment was intended to investigate the activation of androgen and corticosteroid receptors by compound I.
CPII was compound II above, clobuzarit, which was used at 10^−7M.

pro-MMP-1 = experiment: Experiment 5: immunoblot of pro-MMP-1 in rheumatoid fibroblasts; type: cell-based, human; settings: 36 hours, 10 ng/ml TPA plus 5×10^-7M substance, compared to TPA alone (lane 5)
Description: Rheumatoid fibroblasts were cultured from synovium obtained from the knee joint of a patient with rheumatoid arthritis. Cells were cultured in monolayer with DMEM tissue culture medium (Gibco) with the inclusion of 5% v/v charcoal stripped serum in 75 cm^2 flasks. The cells were treated for 36 hours with the addition of 10 ng/ml TPA (phorbol ester) plus 5×10^−7M thyroid hormone, Compound II or Compound III. TPA and drugs were added at time zero and at 30 hours, the TPA addition ensured phosphorylation of c-jun.
After 36 hours, cells were lysed in phosphate buffered saline (PBS) containing protease inhibitors and 0.1% Triton-X-100, and then boiled for 5 minutes in non-reducing gel loading buffer. Samples of cell lysate corresponding to equal cell number were loaded onto a 12.5% SDS polyacrylamide gel, and electrophoresis using a Bio-Rad™, (Bio-Rad Laboratories, California USA) Mini Protean II cell was performed at approximately 100V for one hour.
Transfer of proteins to nitrocellulose membrane was performed using a Bio-Rad Mini Trans-Blot transfer cell.
Immunoblotting was performed using polyclonal rabbit anti-human phosphorylation specific (set 73) c-jun (cat. No 06659, Upstate Biotechnology), or MMP-1 (cat. No. RDI-MMP1Habr, Research Diagnostics) antibodies diluted 1:1000 in Tris buffered saline+3% fat free milk powder. […]

[4] = substance added with TPA 75 ng/ml
[5] = substance added alone, TPA 75 ng/ml
[6] = substance added with TPA 75 ng/ml, Dex 10^-7M
[7] = substance added with TPA 75 ng/ml, DHT 10^-7M
[8] = CPII 10^-7M together with Dex 10^-7M

Structure (SMILES): CC(C)(OCc1ccc(-c2ccc(Cl)cc2)cc1)C(=O)O [Compound II, 1-[4-(4-chlorophenyl)benzyloxy]-1-methylpropionic acid]
- collagenase I (MMP) promoter activity in the absence of either receptor, in words (collagenase I promoter [1]; TPA stimulated and unstimulated, Empty): able to reduce the level
- Raw counts (Empty) (collagenase I promoter [1]; luciferase, substance added alone, TPA 75 ng/ml): 1882 counts
- % control (Empty) (collagenase I promoter [1]; substance added alone): 78%
- Raw counts (Empty) (collagenase I promoter [1]; [4]): 2747 counts
- % control (Empty) (collagenase I promoter [1]; [4]): 115%
- % control (GR1) (collagenase I promoter [2]; substance added alone): 48%
- Raw counts (GR1) (collagenase I promoter [2]; [5]): 6151 counts
- Raw counts (GR1) (collagenase I promoter [2]; [6]): 39968 counts
- % control (GR1) (collagenase I promoter [2]; [6]): 311%
- collagenase I activation, in words (GR1) (collagenase I promoter [2]; TPA-stimulated, glucocorticoid receptor): able to down regulate collagenase I activation
- % control (AR) (collagenase I promoter [3]; substance added alone): 51%
- Raw counts (AR) (collagenase I promoter [3]; [5]): 1374 counts
- Raw counts (AR) (collagenase I promoter [3]; [7]): 5986 counts
- % control (AR) (collagenase I promoter [3]; [7]): 224%
- collagenase I activation, in words (AR) (collagenase I promoter [3]; TPA-stimulated, androgen receptor): able to down regulate collagenase I activation
- activation of glucocorticoid receptor-driven transcription, in words (glucocorticoid receptor; 10^-7M, compared with Dex): negligible activity
- Raw counts (GR1) (glucocorticoid receptor; [8]): 748249 counts
- % control (GR1) (glucocorticoid receptor; [8]): 20965%
- Raw counts (GR1) (glucocorticoid receptor; substance alone at 10^-7M): 3272 counts
- % control (GR1) (glucocorticoid receptor; substance alone at 10^-7M): 92%
- amount of pro-MMP-1, band intensity (pro-MMP-1): lower intensity
